The values below come from patent publication US7060822B1, “2-pyrazolin-5-ones” (Abbott GmbH & Co. KG, priority 1999, dated 2006).

Regarding `Cc1[nH]c(C=C2C(=O)NN=C2c2nc3ccccc3s2)c(C)c1CN1CCOCC1` [Example 134, 3-(Benzothiazol-2-yl)-4-[(3,5-dimethyl-4-morpholinomethylpyrrol-2-yl)methylene]-2-pyrazolin-5-one], the melting point is 285 °C (dec.).

In the case of `CCc1c(C)[nH]c(C=C2C(=O)NN=C2c2cnccn2)c1C` [Example 135, 4-[(3,5-Dimethyl-4-ethylpyrrol-2-yl)methylene]-3-pyrazinyl-2-pyrazolin-5-one], the melting point lay in the range of 264 to 267 °C.

Compound `CCOC(=O)c1c[nH]c(C=C2C(=O)NN=C2c2cnccn2)c1` [Example 136, 4-[(4-Ethoxycarbonylpyrrol-2-yl)methylene]-3-pyrazinyl-2-pyrazolin-5-one] registered a melting point of 155 to 157 °C.

Compound `O=C1NN=C(c2cnccn2)C1=Cc1cc(C(=O)O)c[nH]1` [Example 137, 4-[(4-Carboxypyrrol-2-yl)methylene]-3-pyrazinyl-2-pyrazolin-5-one] yielded a melting point of 230 to 232 °C.

Compound `Cc1[nH]c(C=C2C(=O)NN=C2c2cnccn2)c(C)c1CNC(=O)C(F)(F)F` [Example 139, 4-[(3,5-Dimethyl-4-trifluoroacetamidomethylpyrrol-2-yl)methylene]-3-pyrazinyl-2-pyrazolin-5-one] gave a melting point of 302 to 305 °C.

Regarding `CCOC(=O)c1c[nH]c(C=C2C(=O)NN=C2C2CC2)c1-c1ccccc1` [Example 140, 3-Cyclopropyl-4-[(4-ethoxycarbonyl-3-phenylpyrrol-2-yl)methylene]-2-pyrazolin-5-one], the melting point fell in the range of 218 to 220 °C.

In turn, `Cc1[nH]c(C=C2C(=O)NN=C2c2ccco2)c(C)c1CN(C)C` [Example 142, 4-[(3,5-Dimethyl-4-dimethylaminomethylpyrrol-2-yl)methylene]-3-(2-furyl)-2-pyrazolin-5-one] came in with a melting point of 209 to 211 °C.

`Cc1[nH]c(C=C2C(=O)NN=C2c2cccs2)c(C)c1CN(C)C` [Example 143, 4-[(3,5-Dimethyl-4-dimethylaminomethylpyrrol-2-yl)methylene]-3-(2-thienyl)-2-pyrazolin-5-one] displayed a melting point of 208 to 210 °C.

`Cc1[nH]c(C=C2C(=O)NN=C2c2cccnc2)c(C)c1CN(C)C` [Example 144, 4-[(3,5-Dimethyl-4-dimethylaminomethylpyrrol-2-yl)methylene]-3-(3-pyridyl)-2-pyrazolin-5-one] gave a melting point of 220 to 224 °C.

On to `CCOC(=O)c1c(C)[nH]c(C=C2C(=O)NN=C2c2ccccc2)c1C` [Example 145, 4-[(3,5-Dimethyl-4-ethoxycarbonylpyrrol-2-yl)methylene]-3-phenyl-2-pyrazolin-5-one], for which the melting point lay within 216 to 217 °C.

The compound `CCc1c(C)[nH]c(C=C2C(=O)NN=C2c2ccccc2)c1C` [Example 146, 4-[(3,5-Dimethyl-4-ethylpyrrol-2-yl)methylene]-3-phenyl-2-pyrazolin-5-one] came in with a melting point of 274 to 275 °C.

Consider `CCOC(=O)c1c[nH]c(C=C2C(=O)NN=C2OCC)c1C(=O)OCC` [Example 147, 4-[(3,4-Di(ethoxycarbonyl)pyrrol-2-yl)methylene]-3-ethoxy-2-pyrazolin-5-one], for which the melting point is 132 to 134 °C.

`CCOC(=O)c1c[nH]c(C=C2C(=O)NN=C2OCC)c1` [Example 148, 3-Ethoxy-4-[(4-ethoxycarbonylpyrrol-2-yl)methylene]-2-pyrazolin-5-one]: the melting point is 212 to 216 °C.

Compound `CCOC(=O)c1c(C)[nH]c(C=C2C(=O)NN=C2CCc2ccccn2)c1C` [Example 149, 4-[(3,5-Dimethyl-4-ethoxycarbonylpyrrol-2-yl)methylene]-3-(2-pyridylethyl)-2-pyrazolin-5-one] returned a melting point of 180 to 182 °C.

`CCOC(=O)c1c(C)[nH]c(C=C2C(=O)NN=C2C(C)Cc2ccccc2)c1C` (stereo not shown) [Example 150, 4-[(3,5-Dimethyl-4-ethoxycarbonylpyrrol-2-yl)methylene]-3-(1-methyl-2-phenylethyl)-2-pyrazolin-5-one] returned a melting point of 168 to 170 °C.

As for `CCOC1=NNC(=O)C1=Cc1[nH]c(C)c(C(=O)O)c1C` [Example 151, 4-[(4-Carboxy-3,5-dimethylpyrrol-2-yl)methylene]-3-ethoxy-2-pyrazolin-5-one], the melting point was in the range of 310 to 312 °C.

Consider `CCOC1=NNC(=O)C1=Cc1ccc([N+](=O)[O-])[nH]1` [Example 152, 3-Ethoxy-4-[(5-nitropyrrol-2-yl)methylene]-2-pyrazolin-5-one], for which the melting point was in the range of 208 to 210 °C.

`CCOC1=NNC(=O)C1=Cc1cc([N+](=O)[O-])c[nH]1` [Example 153, 3-Ethoxy-4-[(4-nitropyrrol-2-yl)methylene]-2-pyrazolin-5-one]: the melting point was in the range of 287 to 289 °C.

`CCOC1=NNC(=O)C1=Cc1cc(C(=O)O)c[nH]1` [Example 154, 4-[(4-Carboxypyrrol-2-yl)methylene]-3-ethoxy-2-pyrazolin-5-one] came in with a melting point of 290 to 293 °C.

`CCOC1=NNC(=O)C1=Cc1[nH]c(C)c(C(=O)NCCN(C)C)c1C` [Example 155, 4-{[3,5-Dimethyl-4-(2-dimethylaminoethylaminocarbonyl)pyrrol-2-yl)methylene}-3-ethoxy-2-pyrazolin-5-one]: the melting point lay in the range of 158 to 160 °C.

In the case of `CCOC1=NNC(=O)C1=Cc1[nH]c(Cl)c(CC(=O)OC)c1C(=O)OC` [Example 156, 4-[(5-Chloro-3-methoxycarbonyl-4-methoxycarbonylmethylpyrrol-2-yl)methylene]-3-ethoxy-2-pyrazolin-5-one], the melting point was 225 to 227 °C.

Consider `CCOC1=NNC(=O)C1=Cc1[nH]cc(C)c1CCC(=O)O` [Example 157, 4-{[3-(2-Carboxyethyl)-4-methylpyrrol-2-yl]methylene}-3-ethoxy-2-pyrazolin-5-one], for which the melting point is 255 to 257 °C.

Compound `CCOC(=O)c1c(C)[nH]c(C=C2C(=O)NN=C2OCC)c1C` [Example 158, 4-[(3,5-Dimethyl-4-ethoxycarbonylpyrrol-2-yl)methylene]-3-ethoxy-2-pyrazolin-5-one] showed a melting point of 232 to 234 °C.

For the compound `CCOC(=O)c1c(C)[nH]c(C=C2C(=O)NN=C2C(F)(F)F)c1C` [Example 160, 4-[(3,5-Dimethyl-4-ethoxycarbonylpyrrol-2-yl)methylene]-3-trifluoromethyl-2-pyrazolin-5-one], the melting point was in the range of 252 to 254 °C.

As to `CCOC(=O)c1c(C)[nH]c(C=C2C(=O)NN=C2c2ccno2)c1C` [Example 161, 4-[(3,5-Dimethyl-4-ethoxycarbonylpyrrol-2-yl)methylene]-3-(5-isoxazolyl)-2-pyrazolin-5-one], the melting point lay in the range of 255 to 257 °C.

Turning to `CCOC(=O)c1c(C)[nH]c(C=C2C(=O)NN=C2c2cccc(N)c2)c1C` [Example 162, 3-(3-Aminophenyl)-4-[(3,5-Dimethyl-4-ethoxycarbonylpyrrol-2-yl)methylene]-2-pyrazolin-5-one], the melting point lay within 214 to 216 °C.

With `CCOC(=O)c1c[nH]c(C=C2C(=O)NN=C2c2cnccn2)c1-c1ccccc1` [Example 164, 4-[(4-Ethoxycarbonyl-3-phenylpyrrol-2-yl)methylene]-3-pyrazinyl-2-pyrazolin-5-one], the melting point fell in the range of 255 to 257 °C.

`CCN(CC)Cc1c(C)[nH]c(C=C2C(=O)NN=C2c2cnccn2)c1C` [Example 166, 4-[(4-Diethylaminomethyl-3,5-dimethylpyrrol-2-yl)methylene]-3-pyrazinyl-2-pyrazolin-5-one] showed a melting point of 242 to 244 °C.

With `Cc1[nH]c(C=C2C(=O)NN=C2c2cnccn2)c(C)c1CN1CCCCC1` [Example 167, 4-[(3,5-Dimethyl-4-piperidinomethylpyrrol-2-yl)methylene]-3-pyrazinyl-2-pyrazolin-5-one], the melting point was in the range of 240 to 242 °C.

The compound `Cc1[nH]c(C=C2C(=O)NN=C2c2ccno2)c(C)c1CN1CCCCC1` [Example 168, 4-[(3,5-Dimethyl-4-piperidinomethylpyrrol-2-yl)methylene]-3-(5-isoxazolyl)-2-pyrazolin-5-one] came in with a melting point of 215 to 217 °C.

For `Cc1[nH]c(C=C2C(=O)NN=C2c2ccno2)c(C)c1CN(C)C` [Example 169, 4-[(3,5-Dimethyl-4-dimethylaminomethylpyrrol-2-yl)methylene]-3-(5-isoxazolyl)-2-pyrazolin-5-one], the melting point was 161 to 163 °C.

Turning to `Cc1[nH]c(C=C2C(=O)NN=C2c2cnccn2)cc1CN(C)C` [Example 170, 4-[(5-Methyl-4-dimethylaminomethylpyrrol-2-yl)methylene]-3-pyrazinyl-2-pyrazolin-5-one], the melting point fell in the range of 193 to 195 °C.

For the compound `Cc1[nH]c(C=C2C(=O)NN=C2C2CC2)c(C)c1CN(C)C.O=C(O)/C=C\C(=O)O` [Example 174, 3-Cyclopropyl-4-[(3,5-dimethyl-4-dimethylaminomethylpyrrol-2-yl)methylene]-2-pyrazolin-5-one maleate], the melting point was 199 to 201 °C.

Consider `Cc1[nH]c(C=C2C(=O)NN=C2c2cnccn2)c(C)c1C(=O)CCCl` [Example 175, 4-{[4-(3-Chloropropionyl)-3,5-dimethylpyrrol-2-yl]methylene}-3-pyrazinyl-2-pyrazolin-5-one], for which the melting point was 213 °C (dec.).

In the case of `Cc1cc(C2=NNC(=O)C2=Cc2[nH]c(C)c(CN(C)C)c2C)no1` [Example 177, 4-[(3,5-Dimethyl-4-dimethylaminomethylpyrrol-2-yl)methylene]-3-(5-methyl-3-isoxazolyl)-2-pyrazolin-5-one], the melting point lay in the range of 242 to 244 °C.

In turn, `Cc1[nH]c(C=C2C(=O)NN=C2c2cnccn2)c(C)c1CN1CCC(O)CC1` [Example 178, 4-{[3,5-Dimethyl-4-(4-hydroxypiperidinomethyl)pyrrol-2-yl]methylene}-3-pyrazinyl-2-pyrazolin-5-one] yielded a melting point of 255 to 257 °C.

In turn, `Cc1[nH]c(C=C2C(=O)NN=C2c2cnccn2)c(C)c1CN.O=C(O)/C=C\C(=O)O` [Example 179, 4-[(4-Aminomethyl-3,5-dimethylpyrrol-2-yl)methylene]-3-pyrazinyl-2-pyrazolin-5-one maleate] showed a melting point of 205 to 208 °C.

For orientation: melting point means the temperature of the solid-liquid transition.
